Literature values as cited in US12605434B2, “Composition for preventing or treating autoimmune diseases” (STATENS SERUM INSTITUT, priority 2021, dated 2026).

Tested on: Th17 polarization

SMILES: CC1=C(/C=C/C(C)=C/C=C/C(C)=C/C(=O)O)C(C)(C)CCC1 [ATRA, all-trans retinoic acid]
- FoxP3 expression (Elias_2008, Kwok_2012): enhancing FoxP3 expression
- Th17 polarization (Elias_2008, Kwok_2012): inhibit the Th17 polarization
- RORγT in T cells (Mucinda_2007): reduction of RORγT
